Key:
[1] = target: T1, IRAK4 (Homo sapiens, UniProt Q9NWZ3); test: 2-hour 10 μM ATP Biochemical Assay (MesoScale Detection format; IRAK4 phosphorylation of biotin labeled IRAK1 activation loop peptide); conditions: IRAK4 MSD BIOCHEMICAL (10 μM ATP) IC50 (μM), 1 nM IRAK4, 2 hours
T1 sequence (Q9NWZ3 1-460): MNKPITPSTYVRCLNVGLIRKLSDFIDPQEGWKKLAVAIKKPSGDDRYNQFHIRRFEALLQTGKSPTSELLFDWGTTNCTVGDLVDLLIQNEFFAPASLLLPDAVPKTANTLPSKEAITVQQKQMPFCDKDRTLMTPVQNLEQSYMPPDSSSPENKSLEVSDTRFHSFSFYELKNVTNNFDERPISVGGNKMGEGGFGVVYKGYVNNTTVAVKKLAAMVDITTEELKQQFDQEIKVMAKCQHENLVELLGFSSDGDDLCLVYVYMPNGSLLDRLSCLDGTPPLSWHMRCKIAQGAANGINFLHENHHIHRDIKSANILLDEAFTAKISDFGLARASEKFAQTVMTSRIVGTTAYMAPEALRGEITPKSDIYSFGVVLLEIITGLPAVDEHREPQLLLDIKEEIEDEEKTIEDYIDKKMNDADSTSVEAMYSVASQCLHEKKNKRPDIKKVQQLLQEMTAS
Procedure, shortened: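 Kinase reaction run 2 h at 10 μM ATP with biotinylated IRAK1 activation-loop peptide, quenched with EDTA. Phospho-peptide captured on streptavidin MSD plates and detected with anti-phosphothreonine rabbit antibody plus Sulfo-Tag anti-rabbit electrochemiluminescence.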

[2] = target: T1, IRAK4; test: 2-hour 1 mM ATP IRAK4 Biochemical assay (as above, but with 100 pM IRAK4 and 1 mM ATP); conditions: IRAK4 MSD BIOCHEMICAL (1 mM ATP) IC50 (μM), 100 pM IRAK4, 2 hours
Procedure, shortened: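 Run with 100 pM IRAK4 and 1 mM ATP for 2 hours, quenched with EDTA pH 8. Phosphorylated biotinylated peptide captured on streptavidin MSD plates and detected with anti-phosphothreonine antibody plus Sulfo-Tag secondary by electrochemiluminescence.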

SMILES	IC50 [1]	IC50 [2]
CCOc1cc2nc([C@H]3C[C@@H]3F)cn2cc1NC(=O)c1cccc(C(F)F)n1 (stereo in doubt) [Example 253, 6-(difluoromethyl)-N-(7-ethoxy-2-((1R*,2S*)-2-fluorocyclopropyl)imidazo[1,2-a]pyridin-6-yl)picolinamide]	0.002 µM	0.005 µM
CCOc1cc2nc([C@@H]3C[C@H]3F)cn2cc1NC(=O)c1cccc(C(F)F)n1 (stereo in doubt) [Example 254, 6-(difluoromethyl)-N-(7-ethoxy-2-((1S*, 2R*)-2-fluorocyclopropyl)imidazo[1,2-a]pyridin-6-yl)picolinamide]	0.002 µM	0.005 µM
CCOc1cc2nc(CC)cn2cc1NC(=O)c1cccc(C(F)(F)F)n1 [Example 1, N-(7-ethoxy-2-ethylimidazo[1,2-a]pyridin-6-yl)-6-(trifluoromethyl)picolinamide]	0.003 µM	0.011 µM
CCOc1cc2nc(C3CC3)cn2cc1NC(=O)c1cccc(C(F)(F)F)n1 [Example 2, N-(2-cyclopropyl-7-ethoxyimidazo[1,2-a]pyridin-6-yl)-6-(trifluoromethyl)picolinamide]	0.003 µM	0.016 µM
CCOc1cc2nc(C3CC3)cn2cc1NC(=O)c1cccc(C(F)F)n1 [Example 3, N-(2-cyclopropyl-7-ethoxyimidazo[1,2-a]pyridin-6-yl)-6-(difluoromethyl)picolinamide]	0.006 µM	0.009 µM
COc1cc2nc(C3CC3)cn2cc1NC(=O)c1cccc(C(F)F)n1 [Example 4, N-(2-cyclopropyl-7-methoxyimidazo[1,2-a]pyridin-6-yl)-6-(difluoromethyl)picolinamide]	0.004 µM	0.015 µM
O=C(Nc1cn2cc(C3CC3)nc2cc1OCC1CCC1)c1cccc(C(F)F)n1 [Example 5, N-(7-(cyclobutylmethoxy)-2-cyclopropylimidazo[1,2-a]pyridin-6-yl)-6-(difluoromethyl)picolinamide]	0.003 µM	0.003 µM
O=C(Nc1cn2cc(C3CC3)nc2cc1OCc1ccccc1)c1cccc(C(F)F)n1 [Example 9, N-(7-(benzyloxy)-2-cyclopropylimidazo[1,2-a]pyridin-6-yl)-6-(difluoromethyl)picolinamide]	0.005 µM	0.01 µM
CCOc1cc2nc(CCOC)cn2cc1NC(=O)c1cccc(C(F)F)n1 [Example 13, 6-(difluoromethyl)-N-(7-ethoxy-2-(2-methoxyethyl)imidazo[1,2-a]pyridin-6-yl)picolinamide]	0.002 µM	0.003 µM
CCOc1cc2nc(C(C)(C)CO)cn2cc1NC(=O)c1cccc(C(F)F)n1 [Example 17, 6-(difluoromethyl)-N-(7-ethoxy-2-(1-hydroxy-2-methylpropan-2-yl)imidazo[1,2-a]pyridin-6-yl)picolinamide]	0.005 µM	0.016 µM
CCOc1cc2nc(CO)cn2cc1NC(=O)c1cccc(C(F)(F)F)n1 [Example 18, N-(7-ethoxy-2-(hydroxymethyl)imidazo[1,2-a]pyridin-6-yl)-6-(trifluoromethyl)picolinamide]	0.004 µM	0.014 µM
CCOc1cc2nc(C(C)(C)O)cn2cc1NC(=O)c1cccc(C(F)(F)F)n1 [Example 19, N-(7-ethoxy-2-(2-hydroxypropan-2-yl)imidazo[1,2-a]pyridin-6-yl)-6-(trifluoromethyl)picolinamide]	0.009 µM	0.044 µM
CCOc1cc2nc(CF)cn2cc1NC(=O)c1cccc(C(F)(F)F)n1 [Example 20, N-(7-ethoxy-2-(fluoromethyl)imidazo[1,2-a]pyridin-6-yl)-6-(trifluoromethyl)picolinamide]	0.003 µM	0.006 µM
CCOc1cc2nc(CC3CCOC3)cn2cc1NC(=O)c1coc(-c2cnn(C)c2)n1 (centres unmarked) [Example 22, N-(7-ethoxy-2-((tetrahydrofuran-3-yl)methyl)imidazo[1,2-a]pyridin-6-yl)-2-(1-methyl-1H-pyrazol-4-yl)oxazole-4-carboxamide]	0.001 µM	0.002 µM
CCOc1cc2nc(CCCO)cn2cc1NC(=O)c1cccc(C(F)F)n1 [Example 23, 6-(difluoromethyl)-N-(7-ethoxy-2-(3-hydroxypropyl)imidazo[1,2-a]pyridin-6-yl)picolinamide]	0.001 µM	0.002 µM
O=C(Nc1cn2cc(C3CC3)nc2cc1N1CCN(CC(F)F)CC1)c1cccc(C(F)(F)F)n1 [Example 24, N-(2-cyclopropyl-7-(4-(2,2-difluoroethyl)piperazin-1-yl)imidazo[1,2-a]pyridin-6-yl)-6-(trifluoromethyl)picolinamide]	0.002 µM	0.004 µM

SMILES	IC50 [1]	IC50 [2]
O=C(Nc1cn2cc(C3CC3)nc2cc1OCC1CC1)c1cccc(C(F)F)n1 [Example 25, N-(2-cyclopropyl-7-(cyclopropylmethoxy)imidazo[1,2-a]pyridin-6-yl)-6-(difluoromethyl)picolinamide]	0.002 µM	0.004 µM
O=C(Nc1cn2cc(C3CC3)nc2cc1OCC(F)(F)F)c1cccc(C(F)F)n1 [Example 26, N-(2-cyclopropyl-7-(2,2,2-trifluoroethoxy)imidazo[1,2-a]pyridin-6-yl)-6-(difluoromethyl)picolinamide]	0.003 µM	0.007 µM
CCOc1cc2nc(CCC(C)(C)O)cn2cc1NC(=O)c1cccc(C(F)F)n1 [Example 27, 6-(difluoromethyl)-N-(7-ethoxy-2-(3-hydroxy-3-methylbutyl)imidazo[1,2-a]pyridin-6-yl)picolinamide]	0.001 µM	0.001 µM
CCOc1cc2nc(C3CC(F)(F)C3)cn2cc1NC(=O)c1cccc(C(F)(F)F)n1 [Example 33, N-(2-(3,3-difluorocyclobutyl)-7-ethoxyimidazo[1,2-a]pyridin-6-yl)-6-(trifluoromethyl)picolinamide]	0.003 µM	0.011 µM
CCOc1cc2nc(CC)cn2cc1NC(=O)c1ccn(C(F)F)n1 [Example 44, 1-(difluoromethyl)-N-(7-ethoxy-2-ethylimidazo[1,2-a]pyridin-6-yl)-1H-pyrazole-3-carboxamide]	0.012 µM	0.027 µM
CCOc1cc2nc(CC)cn2cc1NC(=O)c1ccc2c(n1)CCC2 [Example 49, N-(7-ethoxy-2-ethylimidazo[1,2-a]pyridin-6-yl)-6,7-dihydro-5H-cyclopenta[b]pyridine-2-carboxamide]	0.006 µM	0.019 µM
CC1(COc2cc3nc(C4CC4)cn3cc2NC(=O)c2cccc(C(F)F)n2)COC1 [Example 50, N-(2-cyclopropyl-7-((3-methyloxetan-3-yl)methoxy)imidazo[1,2-a]pyridin-6-yl)-6-(difluoromethyl)picolinamide]	0.004 µM	0.014 µM
CCOCc1cn2cc(NC(=O)c3cccc(C(F)(F)F)n3)c(OCC)cc2n1 [Example 55, N-(7-ethoxy-2-(ethoxymethyl)imidazo[1,2-a]pyridin-6-yl)-6-(trifluoromethyl)picolinamide]	0.003 µM	0.015 µM
CCOc1cc2nc(COC)cn2cc1NC(=O)c1cccc(C(F)(F)F)n1 [Example 56, N-(7-ethoxy-2-(methoxymethyl)imidazo[1,2-a]pyridin-6-yl)-6-(trifluoromethyl)picolinamide]	0.005 µM	0.014 µM
CCOc1cc2nc(C(F)F)cn2cc1NC(=O)c1cccc(C(F)(F)F)n1 [Example 57, N-(2-(difluoromethyl)-7-ethoxyimidazo[1,2-a]pyridin-6-yl)-6-(trifluoromethyl)picolinamide]	0.003 µM	0.008 µM
CCOc1cc2nc(C3CCOC3)cn2cc1NC(=O)c1cccc(C(F)(F)F)n1 (centres unmarked) [Example 59, N-(7-ethoxy-2-(tetrahydrofuran-3-yl)imidazo[1,2-a]pyridin-6-yl)-6-(trifluoromethyl)picolinamide]	0.002 µM	0.003 µM
CCOc1cc2nc(CC3CCCO3)cn2cc1NC(=O)c1cccc(C(F)(F)F)n1 (centres unmarked) [Example 60, N-(7-ethoxy-2-((tetrahydrofuran-2-yl)methyl)imidazo[1,2-a]pyridin-6-yl)-6-(trifluoromethyl)picolinamide]	0.002 µM	0.006 µM
CCOc1cc2nc(C3CNC3)cn2cc1NC(=O)c1cccc(C(F)(F)F)n1 [Example 61, N-(2-(azetidin-3-yl)-7-ethoxyimidazo[1,2-a]pyridin-6-yl)-6-(trifluoromethyl)picolinamide]	0.001 µM	0.002 µM
CCOc1cc2nc(C3CCNC3)cn2cc1NC(=O)c1cccc(C(F)(F)F)n1 (centres unmarked) [Example 62, N-(7-ethoxy-2-(pyrrolidin-3-yl)imidazo[1,2-a]pyridin-6-yl)-6-(trifluoromethyl)picolinamide]	0.001 µM	0.001 µM
CCOc1cc2nc(C3CN(C)C3)cn2cc1NC(=O)c1cccc(C(F)(F)F)n1 [Example 65, N-(7-ethoxy-2-(1-methylazetidin-3-yl)imidazo[1,2-a]pyridin-6-yl)-6-(trifluoromethyl)picolinamide]	0.001 µM	0.001 µM

Reference: US20220089592A1, “IMIDAZO[1,2-A]PYRIDINYL DERIVATIVES AS IRAK4 INHIBITORS” (priority 2019, published 2022)
